The source of these data is patent US20140348861A1, “SYNTHETIC PEPTIDES AND RANDOM COPOLYMERS FOR THE TREATMENT OF AUTOIMMUNE DISORDERS” (NATIONAL INSTITUTE OF IMMUNOLOGY, priority 2011, published 2014).

Starred links: 1 amine or outer side, 2 acyl side, 3 side chain; linkers in the order of their positions; H or OH if unused. Non-standard residues stand in square brackets, D forms with d. No end group written: not given here. Kβ = L-β-lysine, O=C(C[C@H](CCCN[*:3])N[*:1])[*:2]

The test relates to SJL/J mice exhibiting MBP (85-109) induced relapsing remitting form of EAE. The experiment in a line: Therapeutic activity in MBP (85-109) induced relapsing remitting EAE, treatment from day 11. The test is classed as in vivo. As to conditions: SJL/J mice, RR EAE; for Therapeutic activity in comparison to GA (Therapeutic activity (Analogs) − Therapeutic activity GA) / Therapeutic activity in comparison to J5 (Therapeutic activity (Analogs) − Therapeutic activity (J5)): 0.1 mg daily for two weeks; for Therapeutic activity = % reduction in cumulative clinical disability score: synthetic peptides, 0.1 mg daily for two weeks from day 11 post-immunization. The protocol: SJL/J and C57BL6/J mice procured from Jackson's laboratory (Bar Harbor, Me.) were maintained under standard housing conditions in the central animal facility at NII as per institutional ethical committee guidelines. 8-10 week old female SJL/J mice were used throughout the study.
To induce RR EAE or chronic progressive EAE, SJL/J or C57BL6/J mice were immunized subcutaneously with 0.2 mg of MBP (85-109) or 0.1 mg MOG (35-55) emulsified in CFA and 200 ng of pertussis toxin was injected intraperitoneally on day 0 and day 2 so as to permeablize the blood brain barrier. All the animals in various experimental groups were scored daily for clinical disability on a scale of 0-6 where 0=no neurological symptoms, 1=limp tail, 2=weakness of hind limbs or ataxia, 3=incomplete paralysis of hind limbs, 4=complete paralysis of hind limbs, 5=complete paralysis of all four limbs, 6=dead. Diseased animals were provided easy access to food and water.
GA, J91, J92, S101, S102, S103 for two weeks and scored for clinical disability.

Consider EKPKVEAYKAAAAPAβ [Analog S41], for which the “Therapeutic activity in comparison to GA (Therapeutic activity (Analogs) − Therapeutic activity GA)” value is 2.032%, the “Therapeutic activity in comparison to J5 (Therapeutic activity (Analogs) − Therapeutic activity (J5))” value is −1.925% and the “Therapeutic activity = % reduction in cumulative clinical disability score” value (“Therapeutic activity = % reduction” for short) is given as 33.37%.
The like results for EKPKVEAYKAAAAPAβ^3 [Analog S1] were, in that order, 2.995%, −0.9626% and 34.33%.
EKPKVEAYKAAAAPβ^3Aβ^3 [Analog S2]: the “Therapeutic activity in comparison to GA (Therapeutic activity (Analogs) − Therapeutic activity GA)” value is listed as 2.139%, the “Therapeutic activity in comparison to J5 (Therapeutic activity (Analogs) − Therapeutic activity (J5))” value is reported as −1.818% and the “Therapeutic activity = % reduction” value came out at 33.48%.
For the substance EKPKVEAYKAAAAβPAβ [Analog S42], the “Therapeutic activity in comparison to GA (Therapeutic activity (Analogs) − Therapeutic activity GA)” value is given as 3.316%, the “Therapeutic activity in comparison to J5 (Therapeutic activity (Analogs) − Therapeutic activity (J5))” value was −0.6417% and the “Therapeutic activity = % reduction” value worked out at 34.65%.
With EKPKVEAYKAAAAβ^3Pβ^3Aβ^3 [Analog S3], the “Therapeutic activity in comparison to GA (Therapeutic activity (Analogs) − Therapeutic activity GA)” value came to 5.027%, the “Therapeutic activity in comparison to J5 (Therapeutic activity (Analogs) − Therapeutic activity (J5))” value is 1.07% and the “Therapeutic activity = % reduction” value worked out at 36.36%.
Take EKPKVEAYKAAAβAβPAβ [Analog S43]: the “Therapeutic activity in comparison to GA (Therapeutic activity (Analogs) − Therapeutic activity GA)” value came to 9.947%, the “Therapeutic activity in comparison to J5 (Therapeutic activity (Analogs) − Therapeutic activity (J5))” value is 5.989% and the “Therapeutic activity = % reduction” value is 41.28%.
With EKPKVEAYKAAAβ^3Aβ^3Pβ^3Aβ^3 [Analog S4], the “Therapeutic activity in comparison to GA (Therapeutic activity (Analogs) − Therapeutic activity GA)” value came out at 4.492%, the “Therapeutic activity in comparison to J5 (Therapeutic activity (Analogs) − Therapeutic activity (J5))” value was 0.5348% and the “Therapeutic activity = % reduction” value is 35.83%.
Consider EKPKVEAYKAAβAβAβPAβ [Analog S44], for which the “Therapeutic activity in comparison to GA (Therapeutic activity (Analogs) − Therapeutic activity GA)” value is reported as 15.94%, the “Therapeutic activity in comparison to J5 (Therapeutic activity (Analogs) − Therapeutic activity (J5))” value was found to be 11.98% and the “Therapeutic activity = % reduction” value came out at 47.27%.
For “EKPKVEAYKAAβ^3Aβ^3Aβ^3Pβ^3Aβ^3 [Analog S5]”, the “Therapeutic activity in comparison to GA (Therapeutic activity (Analogs) − Therapeutic activity GA)” value was 11.02%, the “Therapeutic activity in comparison to J5 (Therapeutic activity (Analogs) − Therapeutic activity (J5))” value worked out at 7.059% and the “Therapeutic activity = % reduction” value turned out to be 42.35%.
For the substance EKPKVEAYKAβAβAβAβPAβ [Analog S45], the “Therapeutic activity in comparison to GA (Therapeutic activity (Analogs) − Therapeutic activity GA)” value came out at 23.53%, the “Therapeutic activity in comparison to J5 (Therapeutic activity (Analogs) − Therapeutic activity (J5))” value came to 19.57% and the “Therapeutic activity = % reduction” value is reported as 54.87%.
With “EKPKVEAYKβAβAβAβAβPAβ (EKPKVEAY[Kβ]XXXXPX; not fully specified (residues 10, 11, 12, 13, 15); printed as EKPKVEAYKβAβAβAβAβPAβ) [Analog S46]”, the “Therapeutic activity in comparison to GA (Therapeutic activity (Analogs) − Therapeutic activity GA)” value is 21.93%, the “Therapeutic activity in comparison to J5 (Therapeutic activity (Analogs) − Therapeutic activity (J5))” value turned out to be 17.97% and the “Therapeutic activity = % reduction” value turned out to be 53.26%.
Turning to “EKPKVEAYKβ^3Aβ^3Aβ^3Aβ^3Aβ^3Pβ^3Aβ^3 [Analog S6]”, the “Therapeutic activity in comparison to GA (Therapeutic activity (Analogs) − Therapeutic activity GA)” value came out at 19.47%, the “Therapeutic activity in comparison to J5 (Therapeutic activity (Analogs) − Therapeutic activity (J5))” value is recorded as 15.51% and the “Therapeutic activity = % reduction” value is 50.8%.
In the same order, the values of EKPKVEAYβKβAβAβAβAβPAβ [Analog S47] are 20.96%, 17.01% and 52.3%.
As to “EKPKVEAYβ^3Kβ^3Aβ^3Aβ^3Aβ^3Aβ^3Pβ^3Aβ^3 [Analog S7]”, the “Therapeutic activity in comparison to GA (Therapeutic activity (Analogs) − Therapeutic activity GA)” value is given as 22.46%, the “Therapeutic activity in comparison to J5 (Therapeutic activity (Analogs) − Therapeutic activity (J5))” value is on record as 18.5% and the “Therapeutic activity = % reduction” value is 53.8%.
Regarding “EKPKVEAYβ^3Kβ^3Aβ^3Aβ^3Aβ^3Aβ^3Pβ^3Aβ^3 [Analog S8]”, the “Therapeutic activity in comparison to GA (Therapeutic activity (Analogs) − Therapeutic activity GA)” value is given as 23.85%, the “Therapeutic activity in comparison to J5 (Therapeutic activity (Analogs) − Therapeutic activity (J5))” value came out at 19.89% and the “Therapeutic activity = % reduction” value is on record as 55.19%.
The like results for EKPKVEAβYβKβAβAβAβAβPAβ [Analog S48] were, in that order, 22.89%, 18.93% and 54.2246%.
“EKPKVEAβ^3Yβ^3Kβ^3Aβ^3Aβ^3Aβ^3Aβ^3Pβ^3Aβ^3 [Analog S9]”: the “Therapeutic activity in comparison to GA (Therapeutic activity (Analogs) − Therapeutic activity GA)” value is 23.74%, the “Therapeutic activity in comparison to J5 (Therapeutic activity (Analogs) − Therapeutic activity (J5))” value worked out at 19.79% and the “Therapeutic activity = % reduction” value amounted to 55.08%.
In the same order, the values of EKPKVEβAβYβKβAβAβAβAβPAβ [Analog S49] are 18.93%, 14.97% and 50.27%.
In the same order, the values of “EKPKVEβ^3Aβ^3Yβ^3Kβ^3Aβ^3Aβ^3Aβ^3Aβ^3Pβ^3Aβ^3 [Analog S10]” are 19.89%, 15.94% and 51.23%.
For the substance EKPKVβEβAβYβKβAβAβAβAβPAβ [Analog S50], the “Therapeutic activity in comparison to GA (Therapeutic activity (Analogs) − Therapeutic activity GA)” value is reported as −1.925%, the “Therapeutic activity in comparison to J5 (Therapeutic activity (Analogs) − Therapeutic activity (J5))” value is −5.882% and the “Therapeutic activity = % reduction” value came out at 29.41%.
The like results for “EKPKVβ^3Eβ^3Aβ^3Yβ^3Kβ^3Aβ^3Aβ^3Aβ^3Aβ^3Pβ^3Aβ^3 [Analog S11]” were, in that order, 23.53%, 19.57% and 54.87%.
The like results for EKPKβVβEβAβYβKβAβAβAβAβPAβ [Analog S51] were, in that order, −4.92%, −8.877% and 26.42%.
On to “EKPKβ^3Vβ^3Eβ^3Aβ^3Yβ^3Kβ^3Aβ^3Aβ^3Aβ^3Aβ^3Pβ^3Aβ^3 [Analog S12]”, for which the “Therapeutic activity in comparison to GA (Therapeutic activity (Analogs) − Therapeutic activity GA)” value was 25.88%, the “Therapeutic activity in comparison to J5 (Therapeutic activity (Analogs) − Therapeutic activity (J5))” value is recorded as 21.93% and the “Therapeutic activity = % reduction” value stood at 57.22%.
On to “EKPβ^3Kβ^3Vβ^3Eβ^3Aβ^3Yβ^3Kβ^3Aβ^3Aβ^3Aβ^3Aβ^3Pβ^3Aβ^3 [Analog S13]”, for which the “Therapeutic activity in comparison to GA (Therapeutic activity (Analogs) − Therapeutic activity GA)” value came to 24.71%, the “Therapeutic activity in comparison to J5 (Therapeutic activity (Analogs) − Therapeutic activity (J5))” value is listed as 20.75% and the “Therapeutic activity = % reduction” value was 56.04%.
Take “EKβPKβVβEβAβYβKβAβAβAβAβPAβ [Analog S52]”: the “Therapeutic activity in comparison to GA (Therapeutic activity (Analogs) − Therapeutic activity GA)” value is −1.604%, the “Therapeutic activity in comparison to J5 (Therapeutic activity (Analogs) − Therapeutic activity (J5))” value is −5.5615% and the “Therapeutic activity = % reduction” value amounted to 29.73%.
The like results for “EKβ^3Pβ^3Kβ^3Vβ^3Eβ^3Aβ^3Yβ^3Kβ^3Aβ^3Aβ^3Aβ^3Aβ^3Pβ^3Aβ^3 [Analog S14]” were, in that order, 27.91%, 23.96% and 59.25%.
For the substance EβKβPKβVβEAYβKβAβAβAβAβPAβ [Analog S54], the “Therapeutic activity in comparison to GA (Therapeutic activity (Analogs) − Therapeutic activity GA)” value is given as −1.6E−06%, the “Therapeutic activity in comparison to J5 (Therapeutic activity (Analogs) − Therapeutic activity (J5))” value is listed as −3.957% and the “Therapeutic activity = % reduction” value came to 31.3369%.
For the substance “EβKβPKβVβEβAβYβKβAβAβAβAβPAβ [Analog S53]”, the “Therapeutic activity in comparison to GA (Therapeutic activity (Analogs) − Therapeutic activity GA)” value is on record as 0.2139%, the “Therapeutic activity in comparison to J5 (Therapeutic activity (Analogs) − Therapeutic activity (J5))” value was −3.743% and the “Therapeutic activity = % reduction” value turned out to be 31.5508%.
Regarding “EβKβPKβ^3Vβ^3Eβ^3AβYβ^3Kβ^3AβAβAβAβ^3PAβ [Analog S79]”, the “Therapeutic activity in comparison to GA (Therapeutic activity (Analogs) − Therapeutic activity GA)” value turned out to be 28.77%, the “Therapeutic activity in comparison to J5 (Therapeutic activity (Analogs) − Therapeutic activity (J5))” value is on record as 24.81% and the “Therapeutic activity = % reduction” value came to 60.11%.
As for “EβKβPKβ^3Vβ^3Eβ^3AβYβ^3Kβ^3AβAβAβ^3Aβ^3PAβ [Analog S80]”, the “Therapeutic activity in comparison to GA (Therapeutic activity (Analogs) − Therapeutic activity GA)” value is recorded as 30.7%, the “Therapeutic activity in comparison to J5 (Therapeutic activity (Analogs) − Therapeutic activity (J5))” value amounted to 26.74% and the “Therapeutic activity = % reduction” value worked out at 62.03%.
